Experimental findings from patent publication US20050074447A1, “Treatment for diabetic microvascular and macrovascular complications” (priority 2003, published 2005) are described below.

“Also recorded” adds a separate entry of the source.

In one data set the test system is rat INS-1 β-cells. In words: MTS cell viability: protection of INS-1 β-cells from STZ, Example 3. It counts as cell-based. As to conditions: for protection of INS-1 cells from STZ (relative viability): different concentrations of alpha- or gamma-tocopherol, overnight pre-incubation, then 24 hours with STZ 1 mM. How it is done: INS-1 cells were cultured overnight in 96 well culture plates in a humidified incubator at 37° C., in the presence or absence of different concentrations of alpha- or gamma-tocopherol and then in the presence of a combination of equimolar parts of gamma- and alpha-tocopherol (25 μM gamma-, 25 μM alpha-tocopherol). The cells at each condition were then cultured for an additional 24 hours either in the presence or absence of STZ (1 mM). Alpha-tocopherol and gamma-tocopherol concentrations in each well were kept the same as those used in the pre-incubation phase. Cell viability was measured with the MTS assay. Results were normalized and values were expressed relative to control (relative viability).

Data set [1] relates to Retinal endothelial cells. The data set is described as follows: MTS cell viability: protection of retinal endothelial cells from 25 mM glucose and 2 mM palmitate, Example 2. It counts as cell-based, Rhesus monkey. As to conditions: tocopherol used alone; overnight pre-incubation, then 8 hours with 25 mM glucose and 2 mM palmitate. How it is done:
Retinal endothelial cells were cultured overnight in 96 well culture plates in a humidified incubator at 37° C., in the presence or absence of either 50 μM of alpha-tocopherol, 50 μM of gamma-tocopherol or 25 μM alpha-tocopherol plus 25 μM gamma-tocopherol when used in combination. The cells at each condition were then cultured for an additional 8 hours either in the presence or absence of 25 mM glucose and 2 mM palmitate. Alpha-tocopherol and gamma-tocopherol concentrations in each well were kept the same as those used in the pre-incubation phase. Cell viability was measured with the MTS assay. Results were normalized and values were expressed relative to basal glucose control (relative viability).

The test system of data set [2] is Rhesus monkey retinal endothelial cells (ATCC CRL-1780). The data set is described as follows: MTS cell viability of retinal endothelial cells exposed to hyperglycemia and elevated FFA (palmitate), Example 1. It is filed as cell-based. As to conditions: hyperglycemia (25 mM glucose) and elevated FFA (1 and 2 mM palmitate), overnight. How it is done: Rhesus monkey retinal endothelial cells (ATCC CRL-1780) were cultured overnight in 96 well culture plates in a humidified incubator at 37° C., under either basal (5 mM) or hyperglycemic (25 mM) conditions in the absence FFA or in with a 1 and 2 mM palmitate concentration illustrating an elevated FFA environment. At the end of the incubation period endothelial cell viability was measured with the MTS assay and results were expressed relative to the control (5 mM glucose no FFA). The results are shown in Table 1, where error bars represent standard deviations from the mean of triplicate measurements per condition. The relative viability of endothelial cells exposed to hyperglycemia and elevated FFA, as compared to the control, was about 45%. The data in Table 1 illustrates that FFA are cytotoxic to retinal endothelial cells and that their cytotoxicity is enhanced by hyperglycemia. [drawing]

Consider `CN(N=O)C(=O)N[C@@H]1[C@@H](O)[C@H](O)[C@@H](CO)O[C@@H]1O` [STZ], for which the “effect of STZ on viability of INS-1 cells” value in the data set on rat INS-1 β-cells (STZ 1 mM, 24 hours) is “reduced viability”. Consider `Cc1c(O)cc2c(c1C)O[C@](C)(CCC[C@H](C)CCC[C@H](C)CCCC(C)C)CC2` [gamma-tocopherol], for which the “protection of INS-1 cells from STZ (relative viability)” value in the data set with rat INS-1 β-cells is given as “protected from these effects in a dose dependent manner; also recorded: more effective than alpha-tocopherol”. Consider `Cc1c(C)c2c(c(C)c1O)CC[C@@](C)(CCC[C@H](C)CCC[C@H](C)CCCC(C)C)O2` [alpha-tocopherol], for which, in data set [1], the “relative cell viability (relative to basal glucose control)” value is 40 to 50%. Besides, the “protection of INS-1 cells from STZ (relative viability)” value in the data set on rat INS-1 β-cells is “protected from these effects in a dose dependent manner”. As for `CCCCCCCCCCCCCCCC(=O)O` [palmitate], the “relative viability of endothelial cells as compared to the control (5 mM glucose no FFA)” value in data set [2] is given as “about 45%”.
